The source of these data is publication PMC7926726, “The Wound Healing Peptide, AES16-2M, Ameliorates Atopic Dermatitis In Vivo” (Molecules, 2021).

This series can be described thus: Water solubility of the peptide. Type of series: physicochemical. The conditions noted are these: in water; analysed by Anygen; previously described [16] and updated in this study. As to the method:
To investigate whether the wound healing peptide, AES16-2M, could improve AD, Dermatophagoides farina (Df) body-induced AD model was established, and 10 mg/kg of AES16-2M was used as the optimal dose determined by preliminary experiments. […] Since increased IgE and TSLP production is closely related to AD pathology, the total IgE levels from sera were determined.
AES16-2M was synthesized and analyzed for purity, water solubility, and molecular weight by Anygen (Gwang Ju, Korea). Peptide with purity over 95% was used for this study.

Ends that are not written are not given here.

As for REGRT [AES16-2M], the water solubility result is recorded as “over 10.0 mg/mL”.
